Test results as given in the NIST ThermoML archive (doi:10.1016/j.jct.2019.05.010).
Values joined by “and” are separate entries in the source; they are usually repeats but may differ in a detail not shown here. Equal entries are not always repeated. Numbers after ± are expanded uncertainties.

Legend:
[1] = molar heat capacity at constant pressure; conditions: 101.33 kPa, Crystal, Vacuum adiabatic calorimetry
[2] = 101.33 kPa, Crystal, Vacuum adiabatic calorimetry

CC(=O)[CH-]C(C)=O.CC(=O)[CH-]C(C)=O.[Cu+2] [bis(2,4-pentanedionato-O,O')copper]
Conditions	molar entropy, [2] [J/K/mol]	molar heat capacity at constant pressure, [1]
5 K	0.229 ± 0.017	0.667 ± 0.026 J/K/mol
6.54 K	–	1.427 ± 0.043 J/K/mol
9.03 K	–	3.433 ± 0.095 J/K/mol
10 K	1.632 ± 0.068	4.4 ± 0.13 J/K/mol
11.38 K	–	6.016 ± 0.16 J/K/mol
13.66 K	–	9.127 ± 0.24 J/K/mol
15 K	4.62 ± 0.19	11.23 ± 0.31 J/K/mol
16.64 K	–	13.96 ± 0.37 J/K/mol
20 K	9.07 ± 0.37	20.52 ± 0.16 J/K/mol and 20.5 ± 0.15 J/K/mol
22.84 K	–	26.59 ± 0.19 J/K/mol
25 K	14.79 ± 0.4	31.33 ± 0.21 J/K/mol
25.85 K	–	33.31 ± 0.23 J/K/mol
29.17 K	–	40.64 ± 0.27 J/K/mol
30 K	21.5 ± 0.46	42.65 ± 0.28 J/K/mol
32.85 K	–	49.04 ± 0.31 J/K/mol
35 K	28.92 ± 0.55	53.76 ± 0.34 J/K/mol
36.85 K	–	57.9 ± 0.37 J/K/mol
40 K	36.8 ± 0.61	64.51 ± 0.4 J/K/mol
40.6 K	–	65.62 ± 0.41 J/K/mol
44.11 K	–	72.98 ± 0.46 J/K/mol
45 K	44.99 ± 0.68	74.72 ± 0.46 J/K/mol
48.18 K	–	80.84 ± 0.51 J/K/mol
50 K	53.37 ± 0.77	84.29 ± 0.52 J/K/mol
52.32 K	–	88.52 ± 0.55 J/K/mol
55 K	61.8 ± 0.9	93.1 ± 0.58 J/K/mol
56.3 K	–	95.12 ± 0.59 J/K/mol
60 K	70.3 ± 0.9	101 ± 0.6 J/K/mol
60.23 K	–	101.6 ± 0.6 J/K/mol
64.13 K	–	107 ± 0.7 J/K/mol
65 K	78.6 ± 0.9	108.3 ± 0.6 J/K/mol
68.13 K	–	112.6 ± 0.7 J/K/mol
70 K	86.9 ± 1.2	115.1 ± 0.6 J/K/mol
72.3 K	–	118.2 ± 0.7 J/K/mol
76.49 K	–	123.2 ± 0.8 J/K/mol
80 K	103.1 ± 1.2	127.4 ± 0.6 J/K/mol
80.07 K	–	127.4 ± 0.5 J/K/mol
80.38 K	–	128 ± 0.5 J/K/mol
85.04 K	–	132.9 ± 0.5 J/K/mol
89.68 K	–	137.8 ± 0.5 J/K/mol
90 K	118.8 ± 1.2	138.1 ± 0.6 J/K/mol
94.05 K	–	142.1 ± 0.5 J/K/mol
98.21 K	–	146 ± 0.5 J/K/mol
100 K	133.8 ± 1.3	147.6 ± 0.7 J/K/mol
102.43 K	–	149.8 ± 0.5 J/K/mol
106.73 K	–	153.5 ± 0.6 J/K/mol
110 K	148.3 ± 1.5	156.4 ± 0.7 J/K/mol
110.87 K	–	157.3 ± 0.6 J/K/mol
115.52 K	–	160.9 ± 0.6 J/K/mol
120 K	162.3 ± 1.5	164.5 ± 0.7 J/K/mol
120.66 K	–	165 ± 0.6 J/K/mol
125.63 K	–	169 ± 0.6 J/K/mol
130 K	175.7 ± 1.6	172.1 ± 0.7 J/K/mol
130.45 K	–	172.4 ± 0.6 J/K/mol
135.15 K	–	176 ± 0.6 J/K/mol
139.73 K	–	179.1 ± 0.6 J/K/mol
140 K	188.8 ± 1.6	179.4 ± 0.7 J/K/mol
144.22 K	–	182.5 ± 0.6 J/K/mol
148.61 K	–	185.6 ± 0.7 J/K/mol
150 K	201.4 ± 1.9	186.6 ± 0.7 J/K/mol
152.93 K	–	188.8 ± 0.7 J/K/mol
157.17 K	–	191.5 ± 0.7 J/K/mol
160 K	213.6 ± 1.9	193.5 ± 0.7 J/K/mol
161.35 K	–	194.4 ± 0.7 J/K/mol
165.97 K	–	197.3 ± 0.7 J/K/mol
170 K	225.6 ± 1.9	199.8 ± 0.7 J/K/mol
171.03 K	–	200.5 ± 0.7 J/K/mol
176 K	–	203.5 ± 0.7 J/K/mol
180 K	237.2 ± 1.9	206.2 ± 0.7 J/K/mol
180.9 K	–	206.9 ± 0.7 J/K/mol
185.74 K	–	210.1 ± 0.7 J/K/mol
190 K	248.5 ± 1.9	213 ± 0.7 J/K/mol
190.5 K	–	213.3 ± 0.7 J/K/mol
195.21 K	–	216.6 ± 0.8 J/K/mol
199.87 K	–	219.6 ± 0.8 J/K/mol
200 K	259.6 ± 1.9	219.6 ± 0.9 J/K/mol
204.46 K	–	222.6 ± 0.8 J/K/mol
209.01 K	–	225.1 ± 0.8 J/K/mol
210 K	270.5 ± 2.2	225.9 ± 0.9 J/K/mol
213.51 K	–	228.2 ± 0.8 J/K/mol
217.97 K	–	231.3 ± 0.8 J/K/mol
220 K	281.1 ± 2.2	232.5 ± 0.9 J/K/mol
222.38 K	–	234.3 ± 0.8 J/K/mol
226.74 K	–	236.8 ± 0.8 J/K/mol
230 K	291.6 ± 2.2	238.9 ± 0.9 J/K/mol
231.06 K	–	239.5 ± 0.8 J/K/mol
235.35 K	–	242.2 ± 0.8 J/K/mol
239.58 K	–	245.1 ± 0.8 J/K/mol
240 K	301.9 ± 2.2	245.4 ± 0.9 J/K/mol
243.77 K	–	247.8 ± 0.9 J/K/mol
248.11 K	–	250.8 ± 0.9 J/K/mol
250 K	312.1 ± 2.2	252 ± 0.9 J/K/mol
252.68 K	–	253.8 ± 0.9 J/K/mol
257.27 K	–	256.6 ± 0.9 J/K/mol
260 K	322.1 ± 2.2	258.5 ± 0.9 J/K/mol
261.9 K	–	259.8 ± 0.9 J/K/mol
266.49 K	–	262.7 ± 0.9 J/K/mol
270 K	331.9 ± 2.5	265.2 ± 0.9 J/K/mol
271.04 K	–	266.1 ± 0.9 J/K/mol
275.54 K	–	268.5 ± 0.9 J/K/mol
280 K	341.7 ± 2.5	271.7 ± 0.9 J/K/mol
280.45 K	–	272.3 ± 0.9 J/K/mol
285.75 K	–	275.1 ± 0.9 J/K/mol
290 K	351.4 ± 2.5	278.3 ± 0.9 J/K/mol
291 K	–	279 ± 1 J/K/mol
296.16 K	–	282.5 ± 1 J/K/mol
298.15 K	359.1 ± 2.5	283.9 ± 1.1 J/K/mol
300 K	360.9 ± 2.5	285.2 ± 1.1 J/K/mol
300.51 K	–	285.7 ± 1 J/K/mol
304.76 K	–	288.6 ± 1 J/K/mol
308.97 K	–	291.5 ± 1 J/K/mol
310 K	370.4 ± 2.5	292.4 ± 1.1 J/K/mol
313 K	373.2 ± 2.5	294.5 ± 1.1 J/K/mol
313.16 K	–	294.6 ± 1 J/K/mol
